Assay results taken from patent publication US20220280625A1 (Northwestern University, priority 2019, published 2022).
Bridge positions count the residues as written; N and C are the ends. Square brackets hold non-standard residues; d marks the D form. Ends that are not written are not given here. Peptide text beside a SMILES is read from it. * marks the point of attachment. X1 = O=C1[C@@H]2[C@H](C(=O)N1CCCCCC(=O)*)[C@H]1C=C[C@@H]2C1; d(aIle) = CC[C@H](C)[C@@H](N)C(=O)O

Legend:
elastase [1] = assay: in vitro; settings: isolated enzyme elastase, pH 7.2
Experimental: Enzymatic cleavage. Elastase was chosen as a model protease since it can cleave the three glycine fragment for easy recognition of cleavage product which is also similar to the natural initial cleavage product in serum. Remaining peptide percentage was measured by the ratio between the area under the curve at each time point and the area under the curve of the first time point.
Twenty microliters (20 μL) of elastase (1 mM), 20 μL of monomer (FIG. 9A) or polymer (FIG. 9B) (2 mM), 20 μL Tris buffer (250 mM Tris pH 7.2, 1500 mM NaCl, 500 mM CaCl2)) and 140 μL of water were added to a HPLC vial and loaded in the autosampler carousel and a sample immediately taken for injection at 1 min. Subsequently, the reaction was monitored via RP-HPLC (10-80% buffer B) with an injection every 50 minutes following the initial injection.
The ratio of the AUC at each time point relative to the first time point is plotted.

[2] = Systolic blood pressure by tail-cuff system in mice; type: in vivo, C57BL/6 mice; settings: intraperitoneal injection, measured for 20 minutes
Experimental: Healthy C57BL/6 mice were injected with either terlipressin peptide or terlipressin PLP and the systolic blood pressure was measured over time by employing a tail-cuff system (CODA™). The mice were anesthetized with ketamine and placed in restraints over a heated pad. Following 5 minutes of background measurements, the drugs were administrated by intraperitoneal injection (IP) and the measurements continued for another 20 minutes (limited by the effect of ketamine). The delta BP was measured and plotted as a function of time.

[3] = human, in vivo; cited from earlier work
choroidal angiogenesis = assay: Ex vivo choroidal sprouting assay; type: cell-based; settings: FIGS. 24B-24D
Experimental: Ex vivo choroidal sprouting assay. As a first step towards determining the anti-angiogenic properties of the ABT898 PLPs, we performed an ex vivo choroidal sprouting assay. Briefly, eyes are enucleated, dissection is performed to remove the cornea, iris, lens, retina, and vitreous. The peripheral RPE-choroid-sclera complex is plated in Matrigel, angiogenesis develops spontaneously over Day 4-Day 7, and can be quantitated using reverse phase brightfield microscopy (FIG. 24A). ABT898 peptide had no effect upon choroidal angiogenesis (FIGS. 24B and 24C). Alternatively, ABT898 Ester and Amide PLPs, which are not hydrolysable, reduced angiogenesis by 24% and 81%, respectively. Cell penetrating peptides that are rich in arginine residues, aid the cellular penetration of cargo via endocytosis. In order to enhance the cellular penetration capacity and the solubility of the PLPs we modified the C-terminus with arginine moieties. […] Without wishing to be bound by any particular theory, we believe this is because the peptide alone is degraded in the Matrigel milieu. […] In addition, we performed a dose dependent analysis of growth area at Day 4 for treatment with ABT898 amide RR PLP, and the results are shown in FIG. 25.
Ex Vivo Choroidal Sprouting Assay: Anti-VEGF PLPs. […]

thermolysin [4] = molecular target: T1, thermolysin (Bacillus thermoproteolyticus, UniProt P00800); assay: Enzyme degradation kinetics of ABT898 peptide and PLP with thermolysin (HPLC); type: in vitro ADME; settings: 200 μM stock, thermolysin 0.1 μM, over 450 min; PLP = AR PLP (FIG. 26A)
T1 sequence (P00800 233-548): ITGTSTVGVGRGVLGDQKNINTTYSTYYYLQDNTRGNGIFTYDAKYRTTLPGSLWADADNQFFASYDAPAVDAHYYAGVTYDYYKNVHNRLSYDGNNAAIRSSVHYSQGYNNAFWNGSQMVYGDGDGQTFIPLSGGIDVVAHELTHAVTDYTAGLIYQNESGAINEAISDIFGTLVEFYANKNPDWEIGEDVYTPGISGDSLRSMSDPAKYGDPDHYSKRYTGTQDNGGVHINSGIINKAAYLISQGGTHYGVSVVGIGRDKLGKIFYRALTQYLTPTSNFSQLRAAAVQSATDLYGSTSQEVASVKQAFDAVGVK
Experimental: FIGS. 26A-26B. Enzyme degradation kinetics and BLI assay. FIG. 26A. Percent enzymatic cleavage of peptide and PLP (AR PLP) upon the treatment of thermolysin (peptide:enzyme=2000:1) was monitored by HPLC over 450 min. FIG. 26B. Bio-layer interferometry data measuring the binding constant between AR PLP and CD36 receptor.
Enzyme Degradation Kinetics. An important feature of the PLP platform is that the globular structure of peptides arranged on a polymeric scaffold impart high proteolytic resistance. We performed an enzyme resistance assay to confirm that the PLP is resistant to proteolysis as compared to the peptide alone. Both peptide and PLP stock solutions (200 μM) were treated with thermolysin enzyme (0.1 μM) and their degradation profiles were monitored using high performance liquid chromatography (HPLC). […] We calculated the area under the peak at each time point to construct the percent cleaved and plotted it against time for both peptide and PLP (FIG. 26A).

elastase [5] = assay: 20 μL of elastase (1 mM), 20 μL Tris buffer (250 mM Tris pH 7.2, 1500 mM NaCl, 500 mM CaCl2) and 140 μL of water; settings: up to 550 min
thermolysin [6] = molecular target: T1, thermolysin
Experimental: To discern the relationship between backbone structure and peptide stability against proteolysis, enzyme kinetics of each peptide brush polymer with different backbones were measured in PBS buffer with added protease (i.e., thermolysin).
For enzyme-triggered cleavage experiments, the molar ratio of thermolysin to peptide was set to 1:200. Moreover, the temperature was set to 37° C. […] Then thermolysin (0.1 mg, 3.0 nmol, 1 equiv.) was added into the polymer solution which was stirred in a preheated oil bath at 37° C.

NCCCC[C@H](NC(=O)[C@@H]1CCCN1C(=O)[C@@H]1CSSC[C@H](NC(=O)CNC(=O)CNC(=O)CNC(=O)CCCCCN2C(=O)[C@@H]3[C@H](C2=O)[C@H]2C=C[C@@H]3C2)C(=O)N[C@@H](Cc2ccc(O)cc2)C(=O)N[C@@H](Cc2ccccc2)C(=O)N[C@@H](CCC(N)=O)C(=O)N[C@@H](CC(N)=O)C(=O)N1)C(=O)NCC(N)=O [terlipressin peptide monomer] (X1-GGGCYFQNCPKG-NH2; disulfide 4-9)
remaining at 550 min, 0.2 mM (elastase [1]): ~50%

NCCCC[C@H](NC(=O)[C@@H]1CCCN1C(=O)[C@@H]1CSSC[C@H](NC(=O)CNC(=O)CNC(=O)CN)C(=O)N[C@@H](Cc2ccc(O)cc2)C(=O)N[C@@H](Cc2ccccc2)C(=O)N[C@@H](CCC(N)=O)C(=O)N[C@@H](CC(N)=O)C(=O)N1)C(=O)NCC(N)=O [terlipressin, Terlipressin] (H-GGGCYFQNCPKG-NH2; disulfide 4-9)
change in systolic blood pressure over time (delta BP) [2]: immediate and very large increase in blood pressure, which dropped rapidly in a manner of few minutes
distribution half-life [3]: 8 min
elimination half-life [3]: 6 min

ABT898 peptide: synthetic peptide GVi(allo)SQIRP which mimics the TSP1 type-1 repeat (GV[d(aIle)]SQIRP) [reference compound]
effect upon choroidal angiogenesis (choroidal angiogenesis): no effect
degradation by thermolysin (HPLC peak over time) (thermolysin [4]): rapid degradation

GGGCYFQNCPKG
cleaved bond (elastase [5]): G-C

poly(PepNorIm15): peptide brush polymer of GPLGLAGGWGERDGS norbornene dicarboxyimide monomer, DP 15 (also: peptide is a side chain of a norbornene dicarboxyimide brush polymer, DP 15)
proteolytic stability against thermolysin (thermolysin [6]): demonstrated resistance to proteolysis
